Results on one compound are retold here after patent US10287311B2, “Modified fluorinated nucleoside analogues” (priority 2003, dated 2019).

In one data set the test system is Yellow Fever virus. Format: cell-based.
The next data set deals with VEE. As to the kind of experiment: organism not typed. Particulars: Vero. Format: cell-based.
The test system of a further data set is HBV. As to the kind of experiment: Antiviral activity, HBV. It is filed as cell-based.
Data set [1] can be described thus: Cytotoxicity assay (MTS), MDBK. It is filed as cell-based. Particulars: bovine, MDBK cells.
Data set [2] is described as follows: Cytotoxicity assay (MTS), CEM. It is filed as cell-based. Conditions: human, CEM cells. Here is the method: (§1) 50 μl of 2× drug dilutions were added per well in a 96 well plate. Final concentrations of drug ranged from 1 to 100 μM. A “no drug” (media only) control was used to determine the minimum absorbance values and a “cells+media only” control was used for maximum absorbance value. A solvent control was also used. Cells were then added (PBM: 5×10^4 cells/well; CEM: 2.5×10^3 cells/well; Vero, HepG2, Huh-7, and Clone A: 5×10^3 cells/well) and incubated at 37° C. in a humidified 5% CO2 atmosphere for 3-5 days (PBM: 5 days; CEM: 3 days, all others: 4 days). After incubation, 20 μl of MTS dye was added from Cell Titer Aqueous One Solution Cell Proliferation Assay to each well and the plate was re-incubated for 2-4 hours. The absorbance (490 nm) was then read on an ELISA plate reader using the media only/no cell wells as blanks. Percent inhibition was found and used to calculate the CC50.

Data set [3] in a line: Cytotoxicity assay (MTS), Vero. It is filed as cell-based. Particulars: African green monkey, Vero cells. Here is the method: as §1
A short description of data set [4]: Cytotoxicity assay (MTS), MRC-5. Particulars: human, MRC-5 cells; MRC-5, MTS assay. It is filed as cell-based. (Formazan colour is commonly taken as a measure of viable cells.)
Data set [5] can be described thus: Pharmacokinetics in Rhesus monkeys. It is filed as in vivo. Conditions: single oral dose 33.3 mg/kg, Mean ± SD, preliminary. Here is the method:
FIG. 3 depicts the pharmacokinetics of β-D-(2′R)-2′-deoxy-2′-fluoro-2′-C-methylcytidine in Rhesus monkeys given a single dose (33.3 mg/kg) oral or intravenous dose of β-D-(2′R)-2′-deoxy-2′-fluoro-2′-C-methylcytidine.

Data set [6] deals with Human bone marrow cells, BFU-E. As to the kind of experiment: Bone marrow toxicity assay, BFU-E. Conditions: Bone marrow cell. It is filed as cell-based. Here is the method: The culture assays for CFU-GM and BFU-E are performed using a bilayer soft agar or methylcellulose method. Drugs are diluted in tissue culture medium and filtered. After 14 to 18 days at 37° C. in a humidified atmosphere of 5% CO2 in air, colonies of greater than 50 cells are counted using an inverted microscope. The results are presented as the percent inhibition of colony formation in the presence of drug compared to solvent control cultures.

The test system of a further data set is replicon HCV RNA. In words: HCV replicon assay (clone not specified).
Data set [7] is described as follows: Cytotoxicity (CPE, Neutral Red) in KB cells of the antiviral tests. Conditions: human.

Read-outs that look alike come from different tables or passages of the source.

As for `C[C@@]1(F)[C@H](O)[C@@H](CO)O[C@H]1n1ccc(N)nc1=O`, in the data set on Yellow Fever virus, the “activity against Yellow Fever virus (in words)” value is “shows activity”. For the same compound, the EC50 was greater than 100 µM in the data set with VEE (read-out: EC50, CPE) and greater than 100 µM in the data set on VEE (read-out: EC50, NR). Moreover, the “activity on HBV (in words)” value in the data set with HBV was “lack of activity”. For the same compound, the EC90 is greater than 10 µM with HBV (Hepatitis B virus, HBV); roughly 2.5 µM in the data set on replicon HCV RNA (Hepatitis C virus, 96 h, read-out: EC90 (1-log reduction of replicon RNA), 4-days incubation / 96 hours, FIG. 1A (converted)); 1.6 to 4.6 µM with replicon HCV RNA (Hepatitis C virus, read-out: EC90 values, range for the replicon clones, range over replicon clones of Table 1); 5 µM in the data set on replicon HCV RNA (read-out: EC90 (1-log reduction of replicon RNA) (converted), 4-days incubation / 96 hours, FIG. 1A). In addition, the 50% cytotoxic concentration (CC50) at 4 days in [1], in data set [3] and in [4] was greater than 100 µM each time. Moreover, the CC50 at 3 days in data set [2] was greater than 100 µM. Also, the AUC(0-t) in data set [5] (rhesus monkey, in vivo) came out at 44.2 ± 22.2 µM·h. Moreover, in data set [5] (rhesus monkey, in vivo, read-out: T ½ (converted)), the half-life is 234 ± 6 min. In [5], this compound displayed a Bioavailability of 21 ± 11 F %. The compound also gave a Cmax in data set [5] of 9.6 ± 2.7 µM. Also, the Tmax in [5] stood at 2 ± 1 h. Moreover, the 50% inhibitory concentration (IC50) in data set [6] is 98.2 µM. In data set [7], the CC50 was greater than 100 µM.

What is called EC50 is the concentration that produces a half-maximal response. Broadly, the CC50 is the concentration giving 50% cytotoxicity. One may read the AUC(0-t) as the area under the concentration-time curve up to a stated or last time point. Higher therefore signals high exposure. As usually defined, the Cmax is the highest concentration seen after dosing. The Tmax is the time at which the peak concentration occurs. Broadly, the IC50 is the concentration that inhibits the measured activity by half. Read a high IC50 as lower potency.
